Data published in US11931365B2, “Use of PPAR-delta agonists in the treatment of disease” (Reneo Pharmaceuticals, Inc., priority 2022, dated 2024).

Legend:
hPPARα = target: T1, hPPARα (Homo sapiens, UniProt Q07869); test: PPAR receptor transactivation assay (UAS-bla Gal4, HEK293); type: cell-based; settings: PPARα
T1 construct: expressed in transfected cells; host or cells: Jump-In GripTite HEK293
Procedure: (§1) Compound I was tested on all three human PPAR subtypes (hPPAR): hPPARα, hPPARγ, and hPPARδ in vitro assays testing for such activity.
(§2) Compound I was tested on all three human PPAR subtypes (hPPAR): hPPARα, hPPARγ, and hPPARδ. All assays were repeated at least three times for each subtype.
(§3) The genes of interest were synthesized and cloned into an appropriate Jump-In™ retargeting vector following the User Guide of the Jump-in™ T-REx™ HEK293 Retargeting Kit (ThermoFisher Catalog No A15008). For example, the vector will be used to transfect and retarget the Jump-In™ HEK293 GripTite™ parental cell line. Stable pools will be antibiotic-selected for about 21 days and tested for target gene expression by functional assay.
(§4) Jump-In™ GripTite™ HEK293 parental cells were plated at 60-80% confluency in a T-75 flask in growth medium without antibiotics and transfected with a 1:1 ratio of expression construct and R4 integrase expression construct (20 μg DNA total) using Lipofectamine® LTX (50 μL) and PLUS™ Reagent (20 μL). Following a 48 hours incubation, cells were selected with 600 μg/mL Geneticin® and 10 μg/mL Blasticidin for ˜21 days in growth medium.
(§5) Jump-In™ GripTite™ HEK293 rPPAR Alpha, Delta or Gamma UAS-bla-Gal4 cell pools were plated in a 384-well plate format (20,000 cells per well) in OptiMeM without FBS in replicates (n=4). Cells were allowed to adhere for 8 hours before addition of Compound I (1 mM top concentration, 3-fold dilutions, 10-point titration). After 16 hours, the cells were loaded with LiveBLAzer®, a fluorescent BLA substrate that gives a blue/green readout of expressing/non-expressing cells, respectively. The blue/green readout was measured on a fluorescent plate reader (Tecan Safire II).

hPPARγ = target: T2, hPPARγ (Homo sapiens, UniProt P37231); test: as above; type: cell-based
T2 construct: expressed in transfected cells; host or cells: Jump-In GripTite HEK293
T2 sequence (P37231 whole entry): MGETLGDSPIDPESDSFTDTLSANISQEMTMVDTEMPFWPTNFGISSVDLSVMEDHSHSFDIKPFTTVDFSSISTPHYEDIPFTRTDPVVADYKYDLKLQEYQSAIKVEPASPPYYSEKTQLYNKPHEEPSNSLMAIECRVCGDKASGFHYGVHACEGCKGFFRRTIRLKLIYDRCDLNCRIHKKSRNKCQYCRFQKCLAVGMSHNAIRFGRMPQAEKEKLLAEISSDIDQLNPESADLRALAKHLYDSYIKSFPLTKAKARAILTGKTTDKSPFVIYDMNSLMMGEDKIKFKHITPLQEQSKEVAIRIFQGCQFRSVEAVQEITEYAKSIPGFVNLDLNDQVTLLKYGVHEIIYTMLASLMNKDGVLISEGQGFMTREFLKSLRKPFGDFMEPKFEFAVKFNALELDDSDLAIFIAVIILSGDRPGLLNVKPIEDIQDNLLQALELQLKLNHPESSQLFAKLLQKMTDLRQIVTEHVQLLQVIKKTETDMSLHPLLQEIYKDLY
Procedure: as §1, §2, §3, §4, §5

hPPARδ = target: T3, hPPARδ (Homo sapiens, UniProt Q03181); test: as above; type: cell-based
T3 construct: expressed in transfected cells; host or cells: Jump-In GripTite HEK293
T3 sequence (Q03181 1-441): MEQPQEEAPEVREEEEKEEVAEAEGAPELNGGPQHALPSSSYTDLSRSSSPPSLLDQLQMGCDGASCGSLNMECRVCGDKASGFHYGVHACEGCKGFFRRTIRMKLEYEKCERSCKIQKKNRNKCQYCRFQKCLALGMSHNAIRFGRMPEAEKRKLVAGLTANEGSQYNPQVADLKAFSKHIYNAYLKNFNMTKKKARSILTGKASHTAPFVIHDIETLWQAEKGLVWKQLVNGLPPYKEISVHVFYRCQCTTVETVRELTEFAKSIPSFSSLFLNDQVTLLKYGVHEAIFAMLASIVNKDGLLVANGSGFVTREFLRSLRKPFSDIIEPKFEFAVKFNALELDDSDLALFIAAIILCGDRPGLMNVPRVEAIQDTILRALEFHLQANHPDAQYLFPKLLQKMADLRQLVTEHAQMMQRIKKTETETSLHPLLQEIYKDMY
Procedure: as §1, §2, §3, §4, §5

PPARα = PPARα (UniProt Q4PNY3); test: PPAR receptor transactivation assay; type: cell-based; settings: Monkey PPARα
[1] = test system: human retinoid X receptor (hRXR); test: Nuclear receptor activity
FXR = FXR (Homo sapiens, UniProt Q96RI1); test: Nuclear receptor activity
Chain of FXR (Q96RI1 whole entry, species assumed): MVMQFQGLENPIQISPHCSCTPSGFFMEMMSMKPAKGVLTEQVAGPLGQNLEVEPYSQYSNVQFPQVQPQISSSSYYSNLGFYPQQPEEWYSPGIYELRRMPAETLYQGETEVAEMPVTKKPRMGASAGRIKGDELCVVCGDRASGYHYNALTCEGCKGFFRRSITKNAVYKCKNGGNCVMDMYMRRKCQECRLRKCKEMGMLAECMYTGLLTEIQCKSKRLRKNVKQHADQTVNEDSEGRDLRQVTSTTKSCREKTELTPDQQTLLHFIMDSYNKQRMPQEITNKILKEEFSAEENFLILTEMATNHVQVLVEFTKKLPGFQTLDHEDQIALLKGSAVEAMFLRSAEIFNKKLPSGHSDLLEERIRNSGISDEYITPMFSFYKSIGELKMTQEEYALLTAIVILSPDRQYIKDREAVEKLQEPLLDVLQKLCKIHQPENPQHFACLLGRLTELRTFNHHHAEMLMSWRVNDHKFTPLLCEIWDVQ

human muscle cell lines = test: Fatty acid oxidation in muscle cell lines; type: cell-based
[2] = test system: PPARδ regulated genes (CPT1b, PGC-1α); test: In vivo expression of PPARδ regulated genes in muscle; settings: mice muscle
[3] = test system: Angiopoietin-like 4 (ANGPTL4); test: In vivo expression of PPAR regulated target gene in muscle; settings: rat muscle
[4] = test system: patients with primary mitochondrial myopathy; test: Clinical trial for primary mitochondrial myopathy (PMM); type: in vivo, human
[5] = 100 mg once daily, 12 weeks, listed as Compound 1

T1 sequence (Q07869 whole entry, the tested form may be a part): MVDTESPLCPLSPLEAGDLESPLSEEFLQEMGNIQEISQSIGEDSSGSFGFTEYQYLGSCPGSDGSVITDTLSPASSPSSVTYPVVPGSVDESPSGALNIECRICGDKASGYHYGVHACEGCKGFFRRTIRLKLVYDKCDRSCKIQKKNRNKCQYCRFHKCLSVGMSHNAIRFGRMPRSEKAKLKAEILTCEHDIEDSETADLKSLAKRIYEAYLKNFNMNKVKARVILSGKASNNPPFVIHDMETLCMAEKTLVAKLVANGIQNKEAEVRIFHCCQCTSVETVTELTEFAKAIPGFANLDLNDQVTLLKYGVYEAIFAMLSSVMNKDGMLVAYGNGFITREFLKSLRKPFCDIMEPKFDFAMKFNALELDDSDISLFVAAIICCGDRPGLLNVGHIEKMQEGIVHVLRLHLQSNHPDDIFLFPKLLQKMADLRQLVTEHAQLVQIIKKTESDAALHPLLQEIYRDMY

agonist type (hPPARα): partial agonist | agonist type (hPPARγ; PPARγ): partial agonist | EC50 (hPPARγ; human PPARγ): > 10 µM | agonist type (hPPARδ; PPARδ): full agonist | selectivity for PPARδ over PPARα (hPPARδ; PPARδ over PPARα): 100 fold | selectivity for PPARδ over PPARγ (hPPARδ; PPARδ over PPARγ): 400 fold | EC50 (PPARα): > 1000 nM | hRXR activity [1]: did not show any | activity on nuclear receptor FXR (FXR): did not show any
SMILES: Cc1cc(OC/C=C(/c2ccc(F)cc2)c2ccc(C#CCN3CCOCC3)cc2)ccc1OCC(=O)O [Compound I, (E)-2-(4-((3-(4-fluorophenyl)-3-(4-(3-morpholinoprop-1-yn-1-yl)phenyl)allyl)oxy)-2-methylphenoxy)acetic acid]
fatty acid oxidation (human muscle cell lines): dose-dependent increase | expression patterns of PPARδ regulated genes (CPT1b, PGC-1α) [2]: altered the expression patterns | expression of ANGPTL4 [3]: increased the expression | Modified Fatigue Impact Scale scores ([4]; 100 mg once daily, 12 weeks): trends towards increases | brief pain inventory (BPI) score ([4]; 100 mg once daily, 12 weeks): Decreases | distance walked during a 12-minute walk test ([4]; 100 mg once daily, 12 weeks): able to increase the distance walked | peak VO2 ([4]; 100 mg once daily, 12 weeks): trends towards increases | brief pain inventory (BPI) score [4, 5]: decreased | distance walked during a 12-minute walk test [4, 5]: Improvements | tolerability ([4]; PMM patients): well tolerated
